Converted amounts (≈) assume the structure as drawn. Where two headings read alike, the source gives them in different places.
Experiments:
[1] = test system: guanine riboswitch-lacZ fusion construct (xpt-lacZ); test: Riboswitch regulation assay (lacZ-gene reporter); assay type: cell-based, B. subtilis
From the text: The novel pyrimidine compounds, especially PC206, display specificity and potency against some staphylococci but not the other bacterial genus (Table 1 and Table 2). Because they are structurally derived from PC1 and PC2, these novel antibiotic candidates are expected to have the same mode of action. […] To verify this hypothesis, a strain of B. subtilis with a guanine riboswitch-lacZ fusion construct (named xpt-lacZ) integrated in its chromosome was exposed to these new antimicrobials. […] Therefore, it is an adequate reporter species. The metabolization of substrate ONPG into colored ONP was normalized by the bacterial suspension absorbance at 600 nm (Miller units) and relativized to the untreated condition.
β-galactosidase gene expression in the presence of the new pyrimidine analogs was studied, using an xpt-lacZ transcriptional fusion construct integrated in the genome of B. subtilis as previously described. Briefly, cultures were grown for 5 h at 35 °C in CAMHB, from an initial optical density of 0.05 at 600 nm (OD600), and then diluted 1:20 and in the presence of different concentrations of the compounds tested. Cultures were centrifuged for 10 min at 13,100 rpm, the supernatant was discarded, and pellets were suspended in a Z-buffer (NaH2PO4 40 mM, Na2HPO4 60 mM, MgSO4 1 mM, KCl 10 mM). Cultures OD600 were measured, and bacteria were then lysed with lysozyme (1 mg/mL) and β-mercaptoethanol 50 mM for 30 min. Lysates were centrifuged for 10 min at 13,100 rpm, and supernatants were incubated for 5 min at 30 °C with the substrate orthonitrophenyl-β-galactoside (ONPG; Sigma Aldrich). Reactions were stopped with Na2CO3 1M, supernatants OD420 were measured, and Miller units were calculated. A decrease in β-galactosidase activity indicated binding of the test compound to the riboswitch. Guanine and oxacillin were used as […] controls, respectively. The formula to measure Miller units is as follows: Millerunits=1000×OD420/t·v·OD600
Here, t represents the time of incubation with ONPG, and v represents the volume of the reaction.

[2] = test system: S. haemolitycus; test: Susceptibility of isolate panel (MIC50, MIC90, range); assay type: cell-based, S. haemolyticus
From the text: (§1) Reference strains for this study (S. aureus ATCC 29213, ATCC 29740 [bovine mastitis strain Newbould], S. epidermidis ATCC 12228, E. coli ATCC 35695, E. faecalis ATCC 29212) were obtained from the American Type Culture Collection (ATCC, Rockville, MD). S. aureus strains CMRSA-10 and CMRSA-2 were obtained from the Laboratoire de santé publique du Québec (LSPQ, Sainte-Anne-de-Bellevue, QC, Canada) and are Canadian CA-MRSA USA-300 and HA-MRSA USA-100 clones, respectively. The strain E. coli imp4213 (lptD), used as a control in MIC assays, is a derivative of E. coli ATCC 35695 (E. coli MC4100) with an increased membrane permeability. […] Other MRSA strains used in this study are clinical isolates of human origin obtained from the microbiology laboratory of the Centre Hospitalier Universitaire de Sherbrooke (CHUS, Sherbrooke, QC, Canada). Bovine mastitis strains (S. aureus, S. chromogenes, S. haemolyticus, S. hominis, S. simulans) were obtained from the Canadian Bovine Mastitis and Milk Quality Research Network (CBRQMN, St-Hyacinthe, QC, Canada). Among these strains, S. aureus 2117 is a high producer of biofilm and was used in the biofilm-eradication assay. S. epidermidis isolates were provided by Centre de Recherche en Infectiologie (CRI) de Québec (Québec, QC, Canada).
(§2) The antibacterial activity of the most promising compound, PC206, was also evaluated against larger groups of clinical isolates of human and animal origin. The MIC50 and MIC90 values represented the concentrations of drug required to inhibit the growth of 50% and 90% of the bacterial strains tested, respectively.

[3] = test system: S. chromogenes; test: as above; assay type: cell-based
From the text: as §1, §2

[4] = test system: S. hominis; test: as above; assay type: cell-based
From the text: as §1, §2

[5] = test system: S. epidermidis; test: as above; assay type: cell-based
From the text: as §1, §2

[6] = test system: S. simulans; test: as above; assay type: cell-based
From the text: as §1, §2

[7] = test system: Bovine S. aureus; test: as above; assay type: cell-based, Staphylococcus aureus
From the text: as §1, §2

[8] = test system: MRSA; test: as above; assay type: cell-based, Staphylococcus aureus
From the text: as §1, §2

[9] = test system: S. aureus bovine strain 2117 embedded in preformed biofilm; test: Biofilm-eradication test (MBEC assay); assay type: cell-based, Staphylococcus aureus
Experimental: The viability of bacteria in preformed biofilms treated with PC206 was evaluated using the MBEC assay™ system (formerly the Calgary Biofilm Device). The device consists of a plastic lid with 96 pegs and a 96-well plate. […] Plates were incubated at 35 °C for 24 h with agitation (120 rpm). […] The pegs were washed three times with PBS and the biofilm was sonicated for 10 min, and then transferred into a new 96-well base plate. The 96-well plate was centrifuged for 5 min at 180 g to recover the detached bacteria.

[10] = test system: Bacillus subtilis xpt-lacZ; test: Broth microdilution MIC; assay type: cell-based; conditions: read-out: Broth Microdilution MIC
[11] = test system: Staphylococcus aureus ATCC 29213; test: Broth microdilution MIC; conditions: ATCC29213, read-out: Broth Microdilution MIC
[12] = test system: Enterococcus faecalis ATCC 29212; test: Broth microdilution MIC; conditions: ATCC29212, read-out: Broth Microdilution MIC
[13] = test system: Escherichia coli ΔlptD4213; test: microbe, parasite or virus in culture; assay type: cell-based; conditions: read-out: Broth Microdilution MIC
From the text: as §1

[14] = test system: Staphylococcus epidermidis ATCC 12228; test: Broth microdilution MIC; conditions: ATCC12228, read-out: Broth Microdilution MIC
[15] = test system: Escherichia coli ATCC 35695; test: Broth microdilution MIC; conditions: ATCC35695, read-out: Broth Microdilution MIC
[16] = test system: Staphylococcus aureus CMRSA-2; test: Broth microdilution MIC; assay type: cell-based
From the text: as §1

[17] = test system: Staphylococcus aureus CMRSA-10; test: Broth microdilution MIC; assay type: cell-based
From the text: as §1

## Nc1nc2nc[nH]c2c(=O)[nH]1 [Guanine, reference compound]
[1]; concentration as low as 1 µg/mL
  Effect on lacZ expression: strongly inhibited lacZ expression

## CC[C@@H]1CCN[C@H](C(=O)N[C@@H]([C@H]2O[C@H](SC)[C@H](O)[C@@H](O)[C@H]2O)[C@H](C)Cl)C1 [PIR, pirlimycin]
[2]; S. haemolitycus, 10 isolates
  MIC50: 0.25 µg/mL (≈ 0.608 µM)
  MIC90: >16 µg/mL
[3]; S. chromogenes, 5 isolates
  MIC50: 0.06 µg/mL (≈ 0.146 µM)
  MIC90: 1 µg/mL (≈ 2.43 µM)
  MIC Range: 0.06 to 2 µg/mL
[4]; S. hominis, 10 isolates
  MIC50: 1 µg/mL (≈ 2.43 µM)
  MIC90: >16 µg/mL
[5]; S. epidermidis, 10 isolates
  MIC50: 0.12 µg/mL (≈ 0.292 µM)
  MIC90: >16 µg/mL
[6]; S. simulans, 5 isolates
  MIC50: 0.12 µg/mL (≈ 0.292 µM)
  MIC90: 0.25 µg/mL (≈ 0.608 µM)
  MIC Range: 0.12 to 0.25 µg/mL
[7]; Bovine S. aureus, 48 isolates
  MIC50: 0.25 µg/mL (≈ 0.608 µM)
  MIC90: 0.5 µg/mL (≈ 1.22 µM)
  MIC Range: 0.12 to 1 µg/mL
[8]; 42 isolates
  MIC50: >64 µg/mL
  MIC90: >64 µg/mL

## CN[C@H](CC(C)C)C(=O)N[C@H]1C(=O)N[C@@H](CC(N)=O)C(=O)N[C@H]2C(=O)N[C@H]3C(=O)N[C@H](C(=O)N[C@H](C(=O)O)c4cc(O)cc(O)c4-c4cc3ccc4O)[C@H](O)c3ccc(c(Cl)c3)Oc3cc2cc(c3O[C@@H]2O[C@H](CO)[C@@H](O)[C@H](O)[C@H]2O[C@H]2C[C@](C)(N)[C@H](O)[C@H](C)O2)Oc2ccc(cc2Cl)[C@H]1O [VAN, vancomycin]
[9]; concentrations up to 512 µg/mL
  Effect on viable counts in preformed biofilm: did not impact viable counts
[10]
  MIC: 0.25 µg/mL (≈ 0.173 µM)
[2]; S. haemolitycus, 10 isolates
  MIC Range: 0.25 to 4 µg/mL
[2]; Staphylococcus haemolyticus
  MIC50: 2 µg/mL (≈ 1.38 µM)
  MIC90: 4 µg/mL (≈ 2.76 µM)
[3]
  MIC50: 0.5 µg/mL (≈ 0.345 µM)
  MIC90: 0.5 µg/mL (≈ 0.345 µM)
[3]; S. chromogenes, 5 isolates
  MIC Range: 0.5 µg/mL (≈ 0.345 µM)
[4]; S. hominis, 10 isolates
  MIC Range: 0.25 to 1 µg/mL
[4]; Staphylococcus hominis
  MIC50: 0.5 µg/mL (≈ 0.345 µM)
  MIC90: 0.5 µg/mL (≈ 0.345 µM)
[5]; S. epidermidis, 10 isolates
  MIC Range: 0.5 to 1 µg/mL
[5]; Staphylococcus epidermidis
  MIC50: 1 µg/mL (≈ 0.69 µM)
  MIC90: 1 µg/mL (≈ 0.69 µM)
[6]; S. simulans, 5 isolates
  MIC Range: 0.5 µg/mL (≈ 0.345 µM)
[6]; Staphylococcus simulans
  MIC50: 0.5 µg/mL (≈ 0.345 µM)
  MIC90: 0.5 µg/mL (≈ 0.345 µM)
[11]
  MIC: 0.5 µg/mL (≈ 0.345 µM)
[12]
  MIC: 4 µg/mL (≈ 2.76 µM)
[13]
  MIC: 1 µg/mL (≈ 0.69 µM)
[14]
  MIC: 1 µg/mL (≈ 0.69 µM)
[15]
  MIC: > 128 µg/mL
[16]; CMRSA2, read-out: Broth Microdilution MIC
  MIC: 1 µg/mL (≈ 0.69 µM)
[17]; CMRSA10, read-out: Broth Microdilution MIC
  MIC: 1 µg/mL (≈ 0.69 µM)
[7]; Bovine S. aureus, 48 isolates
  MIC Range: 0.25 to 1 µg/mL
[7]; Staphylococcus aureus
  MIC50: 0.5 µg/mL (≈ 0.345 µM)
  MIC90: 0.5 µg/mL (≈ 0.345 µM)
[8]; 42 isolates
  MIC Range: 0.5 to 4 µg/mL
[8]; Staphylococcus aureus
  MIC50: 1 µg/mL (≈ 0.69 µM)
  MIC90: 4 µg/mL (≈ 2.76 µM)

## CC(C)(O/N=C(\C(=O)N[C@@H]1C(=O)N2C(C(=O)[O-])=C(C[n+]3ccccc3)CS[C@H]12)c1csc(N)n1)C(=O)O [CAZ, ceftazidime, reference compound]
[13]
  MIC: 0.03 µg/mL (≈ 0.0549 µM)
[15]
  MIC: 0.25 µg/mL (≈ 0.457 µM)

## Cc1onc(-c2ccccc2)c1C(=O)N[C@@H]1C(=O)N2[C@@H]1SC(C)(C)[C@@H]2C(=O)O [OXA, oxacillin]
[10]; B. subtilis xpt-lacZ
  MIC: 0.25 µg/mL (≈ 0.623 µM)
[2]; Staphylococcus haemolyticus, S. haemolitycus, 10 isolates, CAMHB with 2% NaCl, read-out: MIC50
  MIC50: > 16 µg/mL
[2]; Staphylococcus haemolyticus, S. haemolitycus, 10 isolates, CAMHB with 2% NaCl, read-out: MIC90
  MIC90: > 16 µg/mL
[3]; S. chromogenes, 5 isolates, CAMHB with 2% NaCl
  MIC Range: 0.06 to 0.12 µg/mL
[3]; S. chromogenes, 5 isolates, CAMHB with 2% NaCl, read-out: MIC50
  MIC50: 0.12 µg/mL (≈ 0.299 µM)
[3]; S. chromogenes, 5 isolates, CAMHB with 2% NaCl, read-out: MIC90
  MIC90: 0.12 µg/mL (≈ 0.299 µM)
[4]; Staphylococcus hominis, S. hominis, 10 isolates, CAMHB with 2% NaCl, read-out: MIC50
  MIC50: 1 µg/mL (≈ 2.49 µM)
[4]; Staphylococcus hominis, S. hominis, 10 isolates, CAMHB with 2% NaCl, read-out: MIC90
  MIC90: > 16 µg/mL
[5]; S. epidermidis, 10 isolates, CAMHB with 2% NaCl
  MIC Range: 0.03 to 16 µg/mL
[5]; Staphylococcus epidermidis, S. epidermidis, 10 isolates, CAMHB with 2% NaCl, read-out: MIC50
  MIC50: 2 µg/mL (≈ 4.98 µM)
[5]; Staphylococcus epidermidis, S. epidermidis, 10 isolates, CAMHB with 2% NaCl, read-out: MIC90
  MIC90: > 16 µg/mL
[6]; S. simulans, 5 isolates, CAMHB with 2% NaCl
  MIC Range: 0.06 to 0.12 µg/mL
[6]; Staphylococcus simulans, S. simulans, 5 isolates, CAMHB with 2% NaCl, read-out: MIC50
  MIC50: 0.06 µg/mL (≈ 0.149 µM)
[6]; Staphylococcus simulans, S. simulans, 5 isolates, CAMHB with 2% NaCl, read-out: MIC90
  MIC90: 0.12 µg/mL (≈ 0.299 µM)
[11]
  MIC: 0.25 µg/mL (≈ 0.623 µM)
[16]; CMRSA2, S. aureus CMRSA-2, CAMHB supplemented with 2% NaCl, read-out: Broth Microdilution MIC
  MIC: > 64 µg/mL
[17]; CMRSA10, S. aureus CMRSA-10, CAMHB supplemented with 2% NaCl, read-out: Broth Microdilution MIC
  MIC: 64 µg/mL (≈ 159 µM)
[7]; Bovine S. aureus, 48 isolates, CAMHB with 2% NaCl
  MIC Range: 0.03 to 32 µg/mL
[7]; Staphylococcus aureus, Bovine S. aureus, 48 isolates, CAMHB with 2% NaCl, read-out: MIC50
  MIC50: 0.12 µg/mL (≈ 0.299 µM)
[7]; Staphylococcus aureus, Bovine S. aureus, 48 isolates, CAMHB with 2% NaCl, read-out: MIC90
  MIC90: 0.25 µg/mL (≈ 0.623 µM)
[8]; 42 isolates, CAMHB with 2% NaCl
  MIC Range: 4 to 64 µg/mL
[8]; Staphylococcus aureus, 42 isolates, CAMHB with 2% NaCl, read-out: MIC50
  MIC50: 32 µg/mL (≈ 79.7 µM)
[8]; Staphylococcus aureus, 42 isolates, CAMHB with 2% NaCl, read-out: MIC90
  MIC90: 64 µg/mL (≈ 159 µM)
[1]; concentrations below the MIC of 0.25 µg/mL
  Effect on Miller units: did not affect the expression of Miller units

## CNC(C)C1CCC(N)C(OC2C(N)CC(N)C(OC3OCC(C)(O)C(NC)C3O)C2O)O1 (stereo not drawn) [Gentamicin, reference compound]
[9]; 24 h preformed biofilm
  Lowest concentration that significantly reduced CFU/peg: 2 µg/mL
